Eight molecules from patent publication EP4786487A1, “PEPTIDE” (Peptidream Inc, priority 2023, dated 2025) can be followed below.

SMILES strings stand for the structures. Read-outs that look alike come from different tables or passages of the source. Starred links: 1 amine or outer side, 2 acyl side, 3 side chain; linkers in the order of their positions; H or OH if unused. Positions of bridges follow the written chain, without caps; N, C: chain ends. Non-standard residues stand in square brackets, D forms with d. Residues, ends and D or L forms follow the SMILES beside them. *: point of attachment. Ala(1-CH2CO2H-4-piperidyl) = N[C@@H](CC1CCN(CC(=O)O)CC1)C(=O)O; X8 = COc1ccc(-n2cc(C[C@H](N[*:1])C(=O)[*:2])c3ccccc32)cc1; Phe(3-OCH2COOH) = N[C@@H](Cc1cccc(OCC(=O)O)c1)C(=O)O; Phe(4-COOH) = N[C@@H](Cc1ccc(C(=O)O)cc1)C(=O)O; Trp(7-aza) = N[C@@H](Cc1c[nH]c2ncccc12)C(=O)O; Piperidinyl(4-CH2COOH) = O=C(O)CC1CCN(*)CC1; Phe(3-OMe) = COc1cccc(C[C@H](N)C(=O)O)c1; Gly(decyl) = CCCCCCCCCC[C@H](N)C(=O)O; Gly(N(CH2)3COOH) = O=C(O)CCCNCC(=O)O; X1 = CCCCCCC[C@H](N[*:1])C(=O)[*:2]; NMeF = CN[C@@H](Cc1ccccc1)C(=O)O; 4Pal = N[C@@H](Cc1ccncc1)C(=O)O; NMeE = CN[C@@H](CCC(=O)O)C(=O)O; Gly(N(CH2)3NH2) = NCCCNCC(=O)O; hCys = N[C@@H](CCS)C(=O)O; Carboxymethyl = O=C(O)C*; NMeA = CN[C@@H](C)C(=O)O; Dap = NC[C@H](N)C(=O)O; NEtG = CCNCC(=O)O; Sar = CNCC(=O)O

One experiment addresses T1, GDF-11 (Homo sapiens, UniProt O95390).
T1 construct: purchased R&D systems 1958-GD-G8/CF
T1 sequence (O95390 299-407): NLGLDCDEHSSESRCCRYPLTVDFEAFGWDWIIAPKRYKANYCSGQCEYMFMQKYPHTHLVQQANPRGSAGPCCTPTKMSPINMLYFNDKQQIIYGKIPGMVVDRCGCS
In words: HepG2 reporter gene assay, Evaluation Procedure (2): 2-concentrations assay, GDF-11 inhibition. It counts as cell-based. As to conditions: for inhibition: read-out: inhibition rate (GDF-11 inhibition assay); for inhibition at 0.03 µM: HepG2, peptide 30nM, read-out: GDF11 Inhibition 30nM; for inhibition at 0.03 µM / inhibition at 0.1 µM: GDF-11 10 ng/mL; for inhibition at 0.1 µM: HepG2, peptide 100nM, read-out: GDF11 Inhibition 100nM. As to the method: (§1) The pGL3(CAGA)12-luc plasmid, namely a pGL3 vector (E1751, Promega) having a luciferase gene inserted downstream of a promoter sequence with 12 CAGA repeats attached, was transfected into HepG2 cell line (HB-8065, ATCC). The culture of HepG2 cell line (HB-8065, ATCC) was performed as in the Evaluation Procedure (1).
(§2) Myostatin (788-G8/CF, R&D systems) or GDF-11 (1958-GD-G8/CF, R&D systems) was added at a final concentration of 10 ng/mL. […] At this time, blank wells, in which neither myostatin, GDF-11, nor each peptide was added, were also prepared and incubated in a CO2 incubator (37°C, 5% CO2) for 20 to 24 hours.
(§3) The medium containing the cells was removed, and a mixture containing PBS (14190144, Thermo) and a chromogenic substrate One-Glo Luciferase Assay System (E6120, Promega) at a ratio of 1:1 was added to each well at 100 µL/well. This was stirred with a plate shaker for 5 min and transferred to a 384-well plate (3570, Corning) at a volume of 20 µL/well.
(§4) The plate was centrifuged at 1,000 × g for 1 min and the luminescence signal (700 nm luminescence) was measured using a plate reader (Envision 2104, PerkinElmer). Based on the measurement results, the inhibition rate at each peptide concentration was calculated. […]
Background: A reporter such as luciferase makes a cellular process visible.

In a further experiment the target is T2, Myostatin (Homo sapiens, UniProt O14793).
T2 construct: active myostatin (also called mature myostatin) is a homodimer consisting of two C-terminal growth factor domains; purchased R&D systems 788-G8/CF
T2 sequence (O14793 267-375): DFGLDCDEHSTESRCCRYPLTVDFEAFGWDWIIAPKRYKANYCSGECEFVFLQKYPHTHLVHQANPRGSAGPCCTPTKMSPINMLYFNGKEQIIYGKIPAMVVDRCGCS
In words: HepG2 reporter gene assay, Evaluation Procedure (2): 2-concentrations assay, myostatin inhibition. It counts as cell-based. As to conditions: HepG2. Here is the method:
as §1, §2, §3, §4

[1] abbreviates: HepG2, first GDF-11 column of Table 7-3/7-4, GDF-11 10 ng/mL, peptide at the lower of the 2 concentrations.
The mark [2] stands for this setting: HepG2, second GDF-11 column of Table 7-3/7-4, GDF-11 10 ng/mL, peptide at the higher of the 2 concentrations.
The mark [3] stands for this setting: Table 7-3/7-4, myostatin 10 ng/mL, peptide at the higher of the 2 concentrations, read-out: inhibition rate (myostatin inhibition assay).
Where [4] appears, read: Table 7-3/7-4, myostatin 10 ng/mL, peptide at the lower of the 2 concentrations, read-out: inhibition rate (myostatin inhibition assay).
Where [5] appears, read: peptide 30nM, Myostatin 10 ng/mL, read-out: Myostatin Inhibition 30nM.
Where [6] appears, read: peptide 100nM, Myostatin 10 ng/mL, read-out: Myostatin Inhibition 100nM.

Turning to `CCCCCCC[C@@H]1NC(=O)[C@H](Cc2ccccc2)N(C)C(=O)[C@H](CCCNC(=N)N)NC(=O)[C@H](Cc2ccc(C(=O)O)cc2)NC(=O)[C@H](Cc2cccc(OCC(=O)O)c2)NC(=O)[C@H](C)N(C)C(=O)[C@H]([C@@H](C)CC)NC(=O)[C@H](Cc2ccccc2)N(C)C(=O)[C@H](Cc2ccc(O)cc2)NC(=O)[C@H](Cc2c[nH]c3ccccc23)NC(=O)[C@H](C)NC(=O)CN(CCCC(=O)O)C(=O)CSCC[C@@H](C(=O)O)NC(=O)[C@H](Cc2ccccc2)N(C)C(=O)[C@H](C)N(C)C1=O` [Myostatin_99_v442] ({CH2CO}-[Gly(N(CH2)3COOH)]AWY[NMeF]I[NMeA][Phe(3-OCH2COOH)][Phe(4-COOH)]R[NMeF][X1][NMeA][NMeF][hCys]-OH; thioether N-15), the inhibition on GDF-11 (setting [1]) and at GDF-11 (setting [2]) was 0% in each case. The inhibition at 0.1 µM on Myostatin (setting [3]) was 100%. Further, the inhibition at 0.03 µM on Myostatin (setting [4]) is 100%.

For the molecule `CCCCCCC[C@@H]1NC(=O)[C@H](Cc2ccccc2)N(C)C(=O)[C@H](CCCNC(=N)N)NC(=O)[C@H](Cc2ccc(C(=O)O)cc2)NC(=O)[C@H](Cc2cccc(OCC(=O)O)c2)NC(=O)[C@H](C)N(C)C(=O)[C@H]([C@@H](C)CC)NC(=O)[C@H](Cc2ccccc2)N(C)C(=O)[C@H](Cc2ccc(O)cc2)NC(=O)[C@H](Cc2cn(-c3ccc(OC)cc3)c3ccccc23)NC(=O)[C@H](C)NC(=O)CN(CCCC(=O)O)C(=O)CSC[C@H](C(=O)O)NC(=O)[C@H](Cc2ccccc2)N(C)C(=O)[C@H](C)N(C)C1=O` [Myostatin_99_v379] ({CH2CO}-[Gly(N(CH2)3COOH)]A[X8]Y[NMeF]I[NMeA][Phe(3-OCH2COOH)][Phe(4-COOH)]R[NMeF][X1][NMeA][NMeF][dC]-OH; thioether N-15), the inhibition at GDF-11 (setting [1]) and at GDF-11 (setting [2]) was 0% each time. At Myostatin (setting [3]), the inhibition at 0.1 µM was 100%. The inhibition at 0.03 µM at Myostatin (setting [4]) came to 100%.

As to `CCCCCCC[C@@H]1NC(=O)[C@H](Cc2ccccc2)N(C)C(=O)[C@H](CCCNC(=N)N)NC(=O)[C@H](Cc2ccc(C(=O)O)cc2)NC(=O)[C@H](Cc2ccncc2)NC(=O)CN(C)C(=O)[C@H]([C@@H](C)CC)NC(=O)[C@H](Cc2ccccc2)N(C)C(=O)[C@H](Cc2ccc(O)cc2)NC(=O)[C@H](Cc2c[nH]c3ccccc23)NC(=O)[C@H](C)NC(=O)CN(CCCC(=O)O)C(=O)CSC[C@H](C(=O)N[C@@H](CC2CCN(CC(=O)O)CC2)C(N)=O)NC(=O)[C@H](Cc2ccccc2)N(C)C(=O)[C@H](C)N(C)C1=O` [Myostatin_99_v235] ({CH2CO}-[Gly(N(CH2)3COOH)]AWY[NMeF]I[Sar][4Pal][Phe(4-COOH)]R[NMeF][X1][NMeA][NMeF][dC][Ala(1-CH2CO2H-4-piperidyl)]-NH2; thioether N-15), the inhibition at 0.03 µM is 0% at GDF-11 and 91% at Myostatin (setting [5]). In addition, the results for the inhibition at 0.1 µM on GDF-11 and at Myostatin (setting [6]) were 0% and 99%, respectively.

Turning to `CC[C@H](C)[C@@H]1NC(=O)[C@H](Cc2ccccc2)N(C)C(=O)[C@H](Cc2ccc(O)cc2)NC(=O)[C@H](Cc2c[nH]c3ncccc23)NC(=O)[C@H](C)NC(=O)CN(CCCC(=O)O)C(=O)CSC[C@H](C(N)=O)NC(=O)[C@H](Cc2ccccc2)N(C)C(=O)[C@H](C)N(C)C(=O)[C@H](CC(C)C)NC(=O)[C@H](Cc2ccccc2)N(C)C(=O)[C@H](CCCNC(=N)N)NC(=O)[C@H](Cc2ccc(C(=O)O)cc2)NC(=O)[C@H](Cc2ccncc2)NC(=O)CN(C)C1=O` [Myostatin_99_Variant_21] ({CH2CO}-[Gly(N(CH2)3COOH)]A[Trp(7-aza)]Y[NMeF]I[Sar][4Pal][Phe(4-COOH)]R[NMeF]L[NMeA][NMeF][dC]-NH2; thioether N-15), the results for the inhibition at 0.03 µM on GDF-11 and at Myostatin (setting [5]) were 0% and 40%, respectively. Moreover, the figures for the inhibition at 0.1 µM on GDF-11 and at Myostatin (setting [6]) were 0% and 76%, respectively.

For `CC[C@H](C)[C@@H]1NC(=O)[C@H](Cc2ccccc2)N(C)C(=O)[C@H](Cc2ccc(O)cc2)NC(=O)[C@H](Cc2c[nH]c3ccccc23)NC(=O)[C@H](C)NC(=O)CN(CCCC(=O)O)C(=O)CSC[C@H](C(=O)O)NC(=O)[C@H](Cc2ccccc2)N(C)C(=O)[C@H](C)N(C)C(=O)[C@H](CC(C)C)NC(=O)[C@H](Cc2ccccc2)N(C)C(=O)[C@H](CCCNC(=N)N)NC(=O)[C@H](Cc2ccc(OCC(=O)O)cc2)NC(=O)[C@H](Cc2cccc(OC)c2)NC(=O)[C@H](C)N(C)C1=O` [Myostatin_99_v126] ({CH2CO}-[Gly(N(CH2)3COOH)]AWY[NMeF]I[NMeA][Phe(3-OMe)]Y(Carboxymethyl)R[NMeF]L[NMeA][NMeF][dC]-OH; thioether N-15), the inhibition at 0.03 µM turned out to be 0% at GDF-11 and 28% on Myostatin (setting [5]). The inhibition at 0.1 µM was determined as 0% at GDF-11 and 68% at Myostatin (setting [6]).

Turning to `CCCCCCCCCC[C@@H]1NC(=O)[C@H](Cc2ccccc2)N(C)C(=O)[C@H](CCCNC(=N)N)NC(=O)[C@H](Cc2ccc(C(=O)O)cc2)NC(=O)[C@H](Cc2cccc(OCC(=O)O)c2)NC(=O)CN(CC)C(=O)[C@H]([C@@H](C)CC)NC(=O)[C@H](Cc2ccccc2)N(C)C(=O)[C@H](Cc2ccc(O)cc2)NC(=O)[C@H](Cc2c[nH]c3ccccc23)NC(=O)[C@H](C)NC(=O)[C@H](C)NC(=O)CSC[C@H](C(=O)N2CCC(CC(=O)O)CC2)NC(=O)[C@H](Cc2ccccc2)N(C)C(=O)[C@H](CCC(=O)O)N(C)C1=O` [Myostatin_99_v336] ({CH2CO}-AAWY[NMeF]I[NEtG][Phe(3-OCH2COOH)][Phe(4-COOH)]R[NMeF][Gly(decyl)][NMeE][NMeF][dC]-{Piperidinyl(4-CH2COOH)}; thioether N-15), the inhibition on GDF-11 (setting [1]) and at GDF-11 (setting [2]) was 0% each time. Besides, the inhibition at 0.1 µM on Myostatin (setting [3]) was determined as 100%. In addition, the inhibition at 0.03 µM at Myostatin (setting [4]) turned out to be 99%.

`CC[C@H](C)[C@@H]1NC(=O)[C@H](Cc2ccccc2)N(C)C(=O)[C@H](Cc2ccc(O)cc2)NC(=O)[C@H](Cc2c[nH]c3ccccc23)NC(=O)[C@H](CN)NC(=O)CN(CCCN)C(=O)CSC[C@H](C(N)=O)NC(=O)[C@H](Cc2ccccc2)N(C)C(=O)[C@H](C)N(C)C(=O)[C@H](CC(C)C)NC(=O)[C@H](Cc2ccccc2)N(C)C(=O)[C@H](CCCNC(=N)N)NC(=O)[C@H](Cc2ccc(O)cc2)NC(=O)[C@H](Cc2ccc(O)cc2)NC(=O)CN(C)C1=O` [Myostatin_99_Variant_13] ({CH2CO}-[Gly(N(CH2)3NH2)][Dap]WY[NMeF]I[Sar]YYR[NMeF]L[NMeA][NMeF][dC]-NH2; thioether N-15): the inhibition at 0.03 µM at GDF-11 stood at 8%; at Myostatin (setting [5]) it was 51%. The inhibition at 0.1 µM is 12% at GDF-11 and 76% at Myostatin (setting [6]).

Consider `CC[C@H](C)[C@@H]1NC(=O)[C@H](Cc2ccccc2)N(C)C(=O)[C@H](Cc2ccc(O)cc2)NC(=O)[C@H](Cc2c[nH]c3ncccc23)NC(=O)[C@H](C)NC(=O)CN(CCCC(=O)O)C(=O)CSC[C@H](C(=O)N[C@H](CO)C(=O)N[C@H](CO)C(=O)N[C@H](CO)C(=O)N[C@H](CCCCN)C(=O)O)NC(=O)[C@H](Cc2ccccc2)N(C)C(=O)[C@H](C)N(C)C(=O)[C@H](CC(C)C)NC(=O)[C@H](Cc2ccccc2)N(C)C(=O)[C@H](CCCNC(=N)N)NC(=O)[C@H](Cc2ccc(C(=O)O)cc2)NC(=O)[C@H](Cc2ccncc2)NC(=O)CN(C)C1=O` [Myostatin_99_v38] ({CH2CO}-[Gly(N(CH2)3COOH)]A[Trp(7-aza)]Y[NMeF]I[Sar][4Pal][Phe(4-COOH)]R[NMeF]L[NMeA][NMeF][dC][dS][dS][dS][dK]-OH; thioether N-15), for which the inhibition at 0.03 µM came to 0% at GDF-11 and 40% at Myostatin (setting [5]). Besides, the inhibition at 0.1 µM was determined as 11% on GDF-11 and 80% on Myostatin (setting [6]).

What is called inhibition is the share of the control response that was lost under treatment.
